Values after ≈ are worked out from the molar mass of the structure shown. Square brackets hold non-standard residues; d marks the D form. Ends that are not written are not given here. * marks the point of attachment. For = O=C*
Legend:
[1] = In-liquid AFM imaging of SLBs mimicking bacterial membranes; conditions: 0.25 μM
Source text: Lipid Vesicle Preparation. 1-palmitoyl-2-oleoyl-glycero-3-phosphocholine (POPC) with 1-palmitoyl-2-oleoyl-sn-glycero-3-phospho-(1′-rac-glycerol) (POPG) lipids used for vesicle construction were from Avanti Polar Lipids (Alabaster, USA). POPC was used as mammalian model membranes, and POPC/POPG (3:1, molar ratios) was used as bacterial model membranes. The lipids were weighted up, dissolved in chloroform-methanol (2:1, vol/vol), and dried under a nitrogen stream to form a thin film. The film was hydrated in 10 mM phosphate buffer (pH 7.4), vortexed for 2 min and bath sonicated for 30 min. The obtained suspension was extruded using a hand-held extruder (Avanti Polar lipids) (29 times, polycarbonate filter, 0.05 μm) to give a clear solution of small unilamellar vesicles, which were analysed (50 nm) by photon correlation spectroscopy (ZEN3600; Malvern Instruments, UK) following the re-suspension of vesicles to a final concentration of 1 mg/mL. Dynamic light scattering batch measurements were carried out in a low volume disposable cuvette at 25° C. Hydrodynamic radii were obtained through the fitting of autocorrelation data using the manufacturer's Dispersion Technology Software (version 5.10).
Preparation of SLBs for in-liquid AFM imaging. SLBs were formed using a vesicle fusion method as described elsewhere.^19 Freshly prepared vesicles (1.5 μL, 3 mg/mL) were added to cleaved mica that was pre-hydrated in 20 mM MOPS, 120 mM NaCl, 20 mM MgCl2 (pH 7.4).
After incubation over 45 min, the samples were washed 10 times with imaging buffer (20 mM MOPS, with 120 mM NaCl, pH 7.4) to remove unfused vesicles. The resulting SLBs were checked to confirm they were defect free. Mica discs (Agar Scientific, Stansted, UK) were glued to a metal puck, and freshly cleaved prior to lipid deposition.
In-liquid AFM imaging of SLBs. The topographic imaging of SLBs in aqueous buffers was performed on a Multimode 8 AFM system (Bruker AXS, USA) using Peak Force Tapping™ mode and MSNL-E cantilevers (Bruker AFM probes, USA). Images were taken at the PeakForce frequency of 2 kHz, PeakForce amplitude of 10-20 nm and PeakForce set-point of 10-30 mV (<100 pN). The images were then processed using Gwyddion (http://gwyddion.net) for line-by-line background subtraction (flattening) and plane fitting. NI01 or its derivatives were introduced into a 100-μL fluid cell (Bruker AXS, USA) to the final concentrations stated.

[2] = Hemolysis assay; format: cell-based, human; conditions: human, human erythrocytes, 10% (vol/vol) suspension, pH 7.2
Description: (§1) Hemolysis assay. Hemolysis was determined using human erythrocytes sourced commercially from Cambridge Bioscience Ltd. and used within two days. 10% (vol/vol) suspensions of human erythrocytes were incubated with NI01, its derivatives or antibiotics. The cells were rinsed four times in 10 mM phosphate buffer saline (PBS, GibcoTM), pH 7.2, by repeated centrifugation and re-suspension (3 min at 3000×g). The cells were then incubated at room temperature for 1 h in either deionized water (fully hemolysed control), PBS, or with a corresponding antimicrobial agent in PBS. After centrifugation at 10,000×g for 5 min, the supernatant was separated from the pellet, and the absorbance was measured at 550 nm using a SpectraMax i3× Multi-Mode Microplate Reader (Molecular Devices). Absorbance of the suspension treated with deionized water defined complete hemolysis. The values given in Table S2 correspond to concentrations needed to lyse half of the sample population (50% lysis of erythrocytes) and are expressed as median hemolytic doses—HD50.

[3] = test system: Human erythrocytes; assay: Hemolysis assay; format: cell-based
Description: as §1

[4] = test system: K. pneumoniae (NCTC 5055); assay: microbe, parasite or virus in culture; format: cell-based
Description: (§2) Minimum Inhibitory Concentrations assay. Minimum inhibitory concentrations (MICs) were determined by broth microdilution on P. aeruginosa, E. coli, S. aureus, M. luteus, B. subtilis, S. typhimurium and K. pneumoniae according to the Clinical and Laboratory Standards Institute. Typically, 100 μL of 0.5-1×10^6 CFU per ml of each bacterium in Mueller Hinton media broth (Oxoid) were incubated in 96-well microtiter plates with 100 μL of serial two-fold dilutions of the corresponding antimicrobial agent (from 100 to 0 μM) at 37° C. on a 3D orbital shaker. The absorbance was measured after the addition of NI01, its derivatives or an antibiotic at 600 nm using a SpectraMax i3× Multi-Mode Microplate Reader (Molecular Devices). MICs were defined as the lowest protein concentration that inhibited visible bacterial growth after 24 h at 37° C.

[5] = test system: P. aeruginosa (ATCC 27853); assay: microbe, parasite or virus in culture; format: cell-based; conditions: for antibacterial activity in words: P. aeruginosa, summary of MICs
Description: as §2

[6] = test system: B. subtilis (ATCC 6633); assay: microbe, parasite or virus in culture; format: cell-based
Description: as §2

[7] = test system: E. coli (ATCC 15597); assay: microbe, parasite or virus in culture; format: cell-based
Description: as §2

[8] = test system: M. luteus (ATCC 49732); assay: microbe, parasite or virus in culture; format: cell-based
Description: as §2

[9] = test system: S. aureus (ATCC 6538); assay: microbe, parasite or virus in culture; format: cell-based; conditions: for antibacterial activity in words: S. aureus, summary of MICs
Description: as §2

[10] = test system: S. typhimurium (DA6192); assay: Minimum inhibitory concentration, broth microdilution; format: cell-based; conditions: 24 h at 37° C.
Description: as §2

[11] = test system: EMRSA (12845); format: cell-based, S. aureus
Description: as §2

[12] = test system: EMRSA (12817); format: cell-based, S. aureus
Description: as §2

[13] = test system: EMRSA (12873); format: cell-based, S. aureus
Description: as §2

[14] = Thermal unfolding by CD spectroscopy; format: physicochemical; conditions: 20 μM protein, pH 7.4, 10 mM phosphate buffer
Description: Circular Dichroism Spectroscopy. Aqueous peptide solutions (300 μL, at a given concentration) were prepared in filtered (0.22 μm), 10 mM phosphate buffer, pH 7.4. CD spectra recorded in the presence of synthetic membranes are for L/P molar ratio of 100. All CD spectra were recorded on a JASCO J-810 spectropolarimeter fitted with a Peltier temperature controller. All measurements were taken in ellipticities in mdeg and converted to molar ellipticities by normalizing for the concentration of peptide bonds and cuvette path length ([θ], deg cm2 dmol−1 res−1). The data collected with a 1 nm step and 1 s collection time per step are presented as the average of 4 scans. Thermal denaturation curves were recorded with 2° C. intervals using 1 nm bandwidth, 180 s equilibration time for each spectrum and with 2° C./min ramp rate.

[15] = test system: mammalian cells lines; conditions: cited from earlier work
[16] = K. pneumoniae (NCTC 5055), 24 h at 37° C.

## For-[dM][dA][dA][dF][dM][dK][dL][dI][dQ][dF][dL][dA][dT][dK]G[dQ][dK][dY][dV][dS][dL][dA][dW][dK][dH][dK]G[dT][dI][dL][dK][dW][dI][dN][dA]G[dQ][dS][dF][dE][dW][dI][dY][dK][dQ][dI][dK][dK][dL][dW][dA] [NI01 D-form]
[1]
  mode of membrane disruption (AFM): strikingly similar pattern to that of the all-L form
[2]
  HC50 at 1 h: 600 µg/mL
[3]
  hemolytic activity in words: non-hemolytic

## CC[C@H](C)[C@H](NC(=O)CN)C(=O)NCC(=O)N[C@@H](C)C(=O)N[C@H](C(=O)N[C@@H](CC(C)C)C(=O)N[C@@H](CCCCN)C(=O)N[C@H](C(=O)N[C@@H](CC(C)C)C(=O)N[C@H](C(=O)N[C@H](C(=O)NCC(=O)N[C@@H](CC(C)C)C(=O)N1CCC[C@H]1C(=O)N[C@@H](C)C(=O)N[C@@H](CC(C)C)C(=O)N[C@H](C(=O)N[C@@H](CO)C(=O)N[C@@H](Cc1c[nH]c2ccccc12)C(=O)N[C@H](C(=O)N[C@@H](CCCCN)C(=O)N[C@@H](CCCNC(=N)N)C(=O)N[C@@H](CCCCN)C(=O)N[C@@H](CCCNC(=N)N)C(=O)N[C@@H](CCC(N)=O)C(=O)N[C@@H](CCC(N)=O)C(N)=O)[C@@H](C)CC)[C@@H](C)CC)[C@@H](C)O)[C@@H](C)O)C(C)C)C(C)C [melittin]
[4]; [16]
  Minimum Inhibitory Concentration: 9 µg/mL

## CC1(C)S[C@@H]2[C@H](NC(=O)[C@H](N)c3ccccc3)C(=O)N2[C@H]1C(=O)O [ampicillin, reference compound]
[4]; Klebsiella pneumoniae, NCTC5055, K. pneumoniae (NCTC 5055), 24 h at 37° C., read-out: Minimum Inhibitory Concentration
  MIC: 5 µg/mL (≈ 14.3 µM)
[5]; Pseudomonas aeruginosa, ATCC27853, P. aeruginosa (ATCC 27853), 24 h at 37° C., read-out: Minimum Inhibitory Concentration
  MIC: 8 µg/mL (≈ 22.9 µM)
[6]; Bacillus subtilis, ATCC6633, B. subtilis (ATCC 6633), 24 h at 37° C., read-out: Minimum Inhibitory Concentration
  MIC: 9 µg/mL (≈ 25.8 µM)
[7]; Escherichia coli, ATCC15597, E. coli (ATCC 15597), 24 h at 37° C., read-out: Minimum Inhibitory Concentration
  MIC: 24 µg/mL (≈ 68.7 µM)
[8]; Micrococcus luteus, ATCC49732, M. luteus (ATCC 49732), 24 h at 37° C., read-out: Minimum Inhibitory Concentration
  MIC: 1 µg/mL (≈ 2.86 µM)
[9]; Staphylococcus aureus, ATCC6538, S. aureus (ATCC 6538), 24 h at 37° C., read-out: Minimum Inhibitory Concentration
  MIC: 1 µg/mL (≈ 2.86 µM)
[10]; Salmonella enterica
  MIC: 8 µg/mL (≈ 22.9 µM)

## polymyxin B [reference compound]
[4]; [16]
  Minimum Inhibitory Concentration: 4 µg/mL
[5]; P. aeruginosa (ATCC 27853), 24 h at 37° C.
  Minimum Inhibitory Concentration: 2 µg/mL
[6]; B. subtilis (ATCC 6633), 24 h at 37° C.
  Minimum Inhibitory Concentration: 4 µg/mL
[7]; E. coli (ATCC 15597), 24 h at 37° C.
  Minimum Inhibitory Concentration: 2 µg/mL
[8]; M. luteus (ATCC 49732), 24 h at 37° C.
  Minimum Inhibitory Concentration: 2 µg/mL
[9]; S. aureus (ATCC 6538), 24 h at 37° C.
  Minimum Inhibitory Concentration: 32 µg/mL
[10]
  Minimum Inhibitory Concentration: 2 µg/mL
[3]; Human erythrocytes, 1 h at room temperature
  HD30, median hemolytic doses to achieve 50% lysis: 350 µg/mL

## QKYVSLAWKHKGTILKWINA-NH2 [α2α3]
[3]
  concentration showing no hemolytic activity: > 600 µg/mL

## H-MAAFMKLIQFLATKGQKYVSLAWKHKGTILKWIN-NH2 [α1α2α3]
[4]; NCTC 5055, 24 h
  Minimum Inhibitory Concentration: 20 µg/mL
[5]; ATCC 27853, 24 h
  Minimum Inhibitory Concentration: 12 µg/mL
[6]; ATCC 6633, 24 h
  Minimum Inhibitory Concentration: 6 µg/mL
[7]; ATCC 15597, 24 h
  Minimum Inhibitory Concentration: 6 µg/mL
[8]; ATCC 49732, 24 h
  Minimum Inhibitory Concentration: 6 µg/mL
[9]; ATCC 6538, 24 h
  Minimum Inhibitory Concentration: 6 µg/mL
[11]
  Minimum Inhibitory Concentration: 32 µg/mL
[12]
  Minimum Inhibitory Concentration: 32 µg/mL
[13]
  Minimum Inhibitory Concentration: 32 µg/mL
[1]
  mode of membrane disruption (AFM): two predicted modes of membrane disruption were evident
[2]
  HC50 at 1 h: 200 µg/mL

## aureocin A53
[14]
  transition midpoint (TM) of thermal unfolding: ~54 °C
[1]
  mode of membrane disruption (AFM): membrane thinning patches and transmembrane lesions and pores

## MAAFMRLIQFLATRGQRYVSLAWRRRGTILRWINAGQSFEWIYRQIRRLWA-NH2 [NI01 R-mutant]
[4]; NCTC 5055, 24 h
  Minimum Inhibitory Concentration: 18 µg/mL
[5]; ATCC 27853, 24 h
  Minimum Inhibitory Concentration: >300 µg/mL
[6]; ATCC 6633, 24 h
  Minimum Inhibitory Concentration: 18 µg/mL
[7]; ATCC 15597, 24 h
  Minimum Inhibitory Concentration: 9 µg/mL
[8]; ATCC 49732, 24 h
  Minimum Inhibitory Concentration: 2 µg/mL
[9]; ATCC 6538, 24 h
  Minimum Inhibitory Concentration: 5 µg/mL
[1]
  mode of membrane disruption (AFM): exclusively thinning patches
[2]
  HC50 at 1 h: 250 µg/mL
[3]
  hemolytic activity in words: drastically increased

## MAAFMKLIQFLATKGQKYVSLAWK-NH2 [α1α2]
[5]
  antibacterial activity in words: ineffective
[9]
  antibacterial activity in words: equally effective
[1]
  mode of membrane disruption (AFM): extended petal-like pores
[2]
  HC50 at 1 h: 150 µg/mL

## KYVSLAWKHKGTILKWINAGQSFEWIYKQIKKLWA-NH2 [α2α3α4]
[2]
  HC50 at 1 h: 200 µg/mL

## KGTILKWINAGQSFEWIYKQIKKLWA-NH2 [α3α4]
[5]
  antibacterial activity in words: ineffective
[9]
  antibacterial activity in words: equally effective
[1]
  mode of membrane disruption (AFM): mixed mode of membrane disruption
[2]
  HC50 at 1 h: 150 µg/mL

## For-MAAFMKLIQFLATKGQKYVSLAWKHKGTILKWINAGQSFEWIYKQIKKLWA [NI01, epidermicin NI01]
[15]
  toxicity towards mammalian cells lines: negligible levels of toxicity
[2]
  HC50 at 1 h: 500 µg/mL
[3]
  hemolytic activity in words: non-hemolytic

Source: patent publication US20230100062A1, “ANTIMICROBIAL PEPTIDES” (priority 2019, published 2023)
